Assay results from US9533985B2, “Sulfonamide derivative and medicinal use thereof” (EA Pharma Co., Ltd., priority 2012, dated 2017).

Experiments:
Format in all cases: cell-based
α4β1 integrin = α4β1 integrin (Homo sapiens (Human), UniProt P05556+P13612); assay: VCAM-1/α4β1 integrin binding inhibitory activity evaluation test (Jurkat cell adhesion to VCAM-1/Fc); conditions: Jurkat cells binding to recombinant human VCAM-1/Fc
Description: The ability of test substances to inhibit the binding of a human T-cell line, Jurkat, which is known to express α4β1 integrin, to VCAM-1 was measured. To 96-well microtiter plates, recombinant human VCAM-1/Fc (R&D systems) solution (1 μg/mL) diluted with buffer A (carbonate buffer, pH 9.6) was added at 50 μL/well, followed by incubation at 4° C. overnight. After washing once with PBS, Block Ace (Snow Brand Milk Products Company, Limited) was added at 150 μL/well, followed by incubation at room temperature for 2 hours. After removal, washing was conducted once with PBS. 100 μL of each test substance diluted with a binding buffer (DMEM containing 40 mM HEPES, 0.2% BSA, and 4 mM MnCl2) to various concentrations and 100 μL of the Jurkat cells (2×10^6 cell/mL) were added to the plates coated with VCAM-1/Fc (5×10^5 cells/well), followed by incubation at 30° C. for 15 minutes to 60 minutes. After the cells were bound to each well, unbound cells were removed by washing with PBS. To the plates, buffer C (PBS containing 1.5% Triton X-100) was added at 50 μL/well to lyse the bound Jurkat cells. To 30 μL of the cell lysate, 30 μL of Substrate Buffer (Promega, CytoTox 96 Non-Radioactive Cytotoxicity Assay) was added, and the reaction was allowed to proceed at room temperature in a dark place for 30 minutes. To each well, 30 μL of Stop Solution (Promega, CytoTox 96 Non-Radioactive Cytotoxicity Assay) was added, and the absorbance at 490 nm was measured by using a plate reader. Here, by the obtained absorbance, the activity of the lactate dehydrogenase (LDH) dissolved into the supernatant of each well was detected. In other words, the absorbance was proportional to the number of the Jurkat cells bound to VCAM-1 and remaining on the plate. The test was duplicated. The binding ratios of the cells at various concentrations were determined, with the absorbance of a well containing no test substances taken as 100%. Then, the concentration IC50, at which 50% binding inhibition was achieved, was calculated. […] Note that, among the compounds synthesized in the corresponding Examples, the compounds in the free form (Compounds A-1 to A-39) were used as the test compounds. Hereinafter, the same shall apply.

α4β7 integrin [1] = molecular target: T1, α4β7 integrin (Homo sapiens (Human), UniProt P13612+P26010); assay: MAdCAM-1/α4β7 integrin binding inhibitory activity evaluation test (RPMI-8866 cell adhesion to MAdCAM-1/Fc); conditions: for Selectivity: IC50 in VCAM-1/α4β1 test divided by IC50 in MAdCAM-1/α4β7 test; for IC50: RPMI-8866 cells binding to recombinant mouse MAdCAM-1/Fc, no serum
T1 sequence (P13612 34-1032): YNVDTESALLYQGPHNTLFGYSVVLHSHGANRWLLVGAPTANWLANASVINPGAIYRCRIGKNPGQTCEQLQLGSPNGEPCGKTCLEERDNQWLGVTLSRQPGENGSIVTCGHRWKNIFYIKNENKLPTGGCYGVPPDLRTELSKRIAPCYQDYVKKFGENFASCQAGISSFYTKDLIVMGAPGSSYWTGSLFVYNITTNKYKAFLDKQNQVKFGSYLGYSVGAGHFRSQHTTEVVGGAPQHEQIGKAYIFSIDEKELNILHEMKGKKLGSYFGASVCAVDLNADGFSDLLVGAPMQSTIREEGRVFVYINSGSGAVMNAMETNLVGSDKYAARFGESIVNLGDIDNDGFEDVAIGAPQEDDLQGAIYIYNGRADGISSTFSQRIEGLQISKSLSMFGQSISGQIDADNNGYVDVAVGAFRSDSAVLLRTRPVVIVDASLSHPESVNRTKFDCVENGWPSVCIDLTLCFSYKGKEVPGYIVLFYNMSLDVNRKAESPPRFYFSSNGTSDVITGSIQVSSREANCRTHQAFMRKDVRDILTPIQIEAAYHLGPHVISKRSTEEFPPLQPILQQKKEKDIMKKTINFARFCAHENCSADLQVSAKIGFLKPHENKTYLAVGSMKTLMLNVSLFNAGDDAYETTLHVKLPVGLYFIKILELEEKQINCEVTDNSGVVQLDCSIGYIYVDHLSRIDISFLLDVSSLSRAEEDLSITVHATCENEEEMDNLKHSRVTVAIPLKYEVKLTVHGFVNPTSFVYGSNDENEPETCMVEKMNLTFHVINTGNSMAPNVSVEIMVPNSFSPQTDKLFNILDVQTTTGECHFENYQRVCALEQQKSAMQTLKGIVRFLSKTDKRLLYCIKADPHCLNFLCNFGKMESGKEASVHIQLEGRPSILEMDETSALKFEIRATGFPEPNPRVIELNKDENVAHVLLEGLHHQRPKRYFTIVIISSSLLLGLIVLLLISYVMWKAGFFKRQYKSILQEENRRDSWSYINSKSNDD
T1 sequence (P26010 20-798): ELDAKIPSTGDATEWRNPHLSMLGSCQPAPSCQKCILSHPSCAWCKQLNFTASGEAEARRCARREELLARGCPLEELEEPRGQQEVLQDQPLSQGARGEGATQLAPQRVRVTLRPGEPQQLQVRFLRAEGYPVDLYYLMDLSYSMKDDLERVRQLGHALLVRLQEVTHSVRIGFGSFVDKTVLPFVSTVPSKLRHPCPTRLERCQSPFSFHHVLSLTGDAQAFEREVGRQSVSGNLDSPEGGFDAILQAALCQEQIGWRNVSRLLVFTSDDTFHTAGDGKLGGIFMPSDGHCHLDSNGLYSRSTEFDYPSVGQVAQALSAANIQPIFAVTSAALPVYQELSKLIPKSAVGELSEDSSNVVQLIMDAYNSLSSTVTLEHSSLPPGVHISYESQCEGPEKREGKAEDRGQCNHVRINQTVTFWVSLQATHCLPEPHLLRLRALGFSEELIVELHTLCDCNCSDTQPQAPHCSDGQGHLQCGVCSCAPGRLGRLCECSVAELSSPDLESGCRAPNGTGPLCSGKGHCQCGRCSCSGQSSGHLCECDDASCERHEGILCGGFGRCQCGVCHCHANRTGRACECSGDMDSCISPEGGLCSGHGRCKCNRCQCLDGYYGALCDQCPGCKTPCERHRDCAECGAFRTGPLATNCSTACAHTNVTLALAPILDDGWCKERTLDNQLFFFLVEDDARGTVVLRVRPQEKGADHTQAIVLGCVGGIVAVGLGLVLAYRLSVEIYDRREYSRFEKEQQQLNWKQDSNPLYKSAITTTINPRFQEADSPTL
Description: The ability of test substances to inhibit the binding of a human B cell line, RPMI-8866, which is known to express α4β7 integrin, to MAdCAM-1 was measured. To 96-well microtiter plates, recombinant mouse MAdCAM-1/Fc (R&D systems) solution (0.75 μg/mL) diluted with buffer A (carbonate buffer solution, pH 9.6) was added at 50 μL/well, followed by incubation at 4° C. overnight. After washing once with PBS, Block Ace (Snow Brand Milk Products Company, Limited) was added at 150 μL/well, followed by incubation at room temperature for 2 hours. After removal, washing was conducted once with PBS. 100 μL of each test substance diluted with binding buffer (DMEM containing 40 mM HEPES, 0.2% BSA, and 4 mM MnCl2) to various concentrations and 100 μL of RPMI-8866 cells (2×10^6 cell/mL) were added to the plates coated with MAdCAM-1/Fc (5×10^5 cells/well), followed by incubation at 30° C. for 15 minutes to 60 minutes. After the cells were bound to each well, unbound cells were removed by washing with PBS. To the plates, buffer C (PBS containing 1.5% Triton X-100) was added at 50 μL/well to lyse the bound RPMI-8866 cells. To 30 μL of the cell lysate, 30 μL of Substrate Buffer (Promega, CytoTox 96 Non-Radioactive Cytotoxicity Assay) was added, and the reaction was allowed to proceed at room temperature in a dark place for 30 minutes. To each well, 30 μL of Stop Solution (Promega, CytoTox 96 Non-Radioactive Cytotoxicity Assay) was added, and the absorbance at 490 nm was measured by using a plate reader. Here, by the obtained absorbance, the activity of the lactate dehydrogenase (LDH) dissolved into the supernatant of each well was detected. In other words, the absorbance was proportional to the number of the RPMI-8866 cells bound to MAdCAM-1 and remaining on the plate. The test was duplicated. The binding ratios of the cells at various concentrations were determined, with the absorbance of a well containing no test substance taken as 100%. Then, the concentration IC50, at which 50% binding inhibition was achieved, was calculated. […] Note that the selectivity in the table was determined by dividing the IC50 value in VCAM-1/α4β1 Integrin Binding Inhibitory Activity Evaluation Test by the IC50 value in the MAdCAM-1/α4β7 integrin binding inhibitory activity evaluation test.

α4β7 integrin [2] = molecular target: T1, α4β7 integrin; assay: MAdCAM-1/α4β7 integrin binding inhibitory activity evaluation test in the presence of serum (1); conditions: RPMI-8866 cells binding to mouse MAdCAM-1/Fc, human serum at final concentration of 50%; read-out: α4β7 with serum added, IC50
Description: The ability of test substances to inhibit the binding of a human B cell line, RPMI-8866, which is known to express α4β7 integrin, to MAdCAM-1 was measured. To 96-well microtiter plates, recombinant mouse MAdCAM-1/Fc (R&D systems) solution (1 μg/mL) diluted with buffer A (carbonate buffer, pH 9.6) was added at 50 μL/well, followed by incubation at 4° C. overnight. After washing once with PBS, Block Ace (Snow Brand Milk Products Company, Limited) was added at 150 μL/well, followed by incubation at room temperature for 2 hours. After removal, washing was conducted once with PBS. 100 μL of each test substance diluted with a binding buffer (DMEM containing 40 mM HEPES, 0.2% BSA, and 4 mM MnCl2) to various concentrations and 100 μL of RPMI-8866 cells (2×10^6 cell/mL) were added to plates coated with MAdCAM-1/Fc (5×10^5 cells/well) with human serum being contained at a final concentration of 50%, followed by incubation at 30° C. for 15 minutes to 60 minutes. After the cells were bound to each well, unbound cells were removed by washing with PBS. To the plates, buffer C (PBS containing 1.5% Triton X-100) was added at 50 μL/well to lyse the bound RPMI-8866 cells. To 30 μL of the cell lysate, 30 μL of Substrate Buffer (Promega, CytoTox 96 Non-Radioactive Cytotoxicity Assay) was added, and the reaction was allowed to proceed at room temperature in a dark place for 30 minutes. To each well, 30 μL of Stop Solution (Promega, CytoTox 96 Non-Radioactive Cytotoxicity Assay) was added, and the absorbance at 490 nm was measured by using a plate reader. Here, by the obtained absorbance, the activity of the lactate dehydrogenase (LDH) dissolved into the supernatant of each well was detected. In other words, the absorbance was proportional to the number of the RPMI-8866 cells bound to MAdCAM-1 and remaining on the plate. The test was duplicated. The binding ratios of the cells at various concentrations were determined, with the absorbance of a well containing no test substance taken as 100%. Then, the concentration IC50, at which 50% binding inhibition was achieved, was calculated.

Sequence of α4β1 integrin (P13612 34-1032): as the sequence (P13612 34-1032) above
Sequence of α4β1 integrin (P05556 21-798): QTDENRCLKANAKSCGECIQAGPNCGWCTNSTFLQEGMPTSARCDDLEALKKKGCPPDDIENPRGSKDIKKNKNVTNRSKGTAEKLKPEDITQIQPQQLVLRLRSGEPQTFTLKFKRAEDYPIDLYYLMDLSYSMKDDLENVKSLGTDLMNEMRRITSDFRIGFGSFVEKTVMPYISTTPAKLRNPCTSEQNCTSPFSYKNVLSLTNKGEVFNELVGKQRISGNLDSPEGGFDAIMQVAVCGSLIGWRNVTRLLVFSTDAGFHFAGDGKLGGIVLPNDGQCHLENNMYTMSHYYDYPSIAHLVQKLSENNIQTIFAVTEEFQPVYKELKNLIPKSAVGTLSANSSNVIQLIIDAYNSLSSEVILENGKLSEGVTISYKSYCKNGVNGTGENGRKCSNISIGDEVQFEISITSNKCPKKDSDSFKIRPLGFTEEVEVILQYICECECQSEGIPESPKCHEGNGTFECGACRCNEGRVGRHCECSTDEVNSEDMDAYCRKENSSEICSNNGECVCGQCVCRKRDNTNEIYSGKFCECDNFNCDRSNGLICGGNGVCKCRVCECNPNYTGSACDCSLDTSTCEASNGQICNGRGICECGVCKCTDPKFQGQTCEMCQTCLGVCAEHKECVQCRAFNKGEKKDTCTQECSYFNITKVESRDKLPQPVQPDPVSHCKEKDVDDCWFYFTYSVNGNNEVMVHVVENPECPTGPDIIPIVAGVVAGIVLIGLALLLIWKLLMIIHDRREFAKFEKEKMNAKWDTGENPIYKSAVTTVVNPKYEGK

IC50 (α4β1 integrin) [nM] | Selectivity (α4β7 integrin [1]) | IC50 (α4β7 integrin [1]) [nM] | IC50 (α4β7 integrin [2]) [nM] | Structure (SMILES)
500 | 520 | 0.97 | 21 | Cn1ccc(=O)n(-c2ccc(C[C@H](NC(=O)c3c(F)cc(NS(=O)(=O)c4ccc(C(=O)NC5CC5)cc4)cc3F)C(=O)O)cc2)c1=O [Example 45, N-{4-[({4-[(Cyclopropylamino)carbonyl]phenyl}sulfonyl)amino]-2,6-difluorobenzoyl}-4-(3-methyl-2,6-dioxo-3,6-dihydropyrimidin-1(2H)-yl)-L-phenylalanine]
210 | 290 | 0.73 | 8.7 | Cn1ccc(=O)n(-c2ccc(C[C@H](NC(=O)c3c(F)cc(NS(=O)(=O)c4ccc(-c5ncccn5)cn4)cc3F)C(=O)O)cc2)c1=O [Example 40, N-(2,6-Difluoro-4-{[(5-pyrimidin-2-yl-pyridin-2-yl)sulfonyl]amino}benzoyl)-4-(3-methyl-2,6-dioxo-3,6-dihydropyrimidin-1(2H)-yl)-L-phenylalanine]
520 | 1300 | 0.39 | 11 | Cc1cc(-c2ccc(S(=O)(=O)Nc3cc(F)c(C(=O)N[C@@H](Cc4ccc(-n5c(=O)c6c(ncn6C)n(C)c5=O)cc4)C(=O)O)c(F)c3)cc2)ccn1 [Example 74, N-[2,6-Difluoro-4-({[4-(2-methylpyridin-4-yl)phenyl]sulfonyl}amino)benzoyl]-4-(3,7-dimethyl-2,6-dioxo-2,3,6,7-tetrahydro-1H-purin-1-yl)-L-phenylalanine]
480 | 600 | 0.8 | 11 | Cn1ccc(=O)n(-c2ccc(C[C@H](NC(=O)c3c(F)cc(NS(=O)(=O)c4ccc(-c5cncnc5)cn4)cc3F)C(=O)O)cc2)c1=O [Example 63, N-(2,6-Difluoro-4-{[(5-pyrimidin-5-yl-pyridin-2-yl)sulfonyl]amino}benzoyl)-4-(3-methyl-2,6-dioxo-3,6-dihydropyrimidin-1(2H)-yl)-L-phenylalanine]
160 | 80 | 2 | 5.4 | Cn1ccc(=O)n(-c2ccc(C[C@H](NC(=O)c3c(F)cc(NS(=O)(=O)c4ccc(-n5cncn5)cn4)cc3F)C(=O)O)cc2)c1=O [Example 56, N-[2,6-Difluoro-4-({[5-(1H-1,2,4-triazol-1-yl)pyridin-2-yl]sulfonyl}amino)benzoyl]-4-(3-methyl-2,6-dioxo-3,6-dihydropyrimidin-1(2H)-yl)-L-phenylalanine]
150 | 560 | 0.27 | 9.1 | Cn1cnc2c1c(=O)n(-c1ccc(C[C@H](NC(=O)c3c(F)cc(NS(=O)(=O)c4ccc(-c5ncccn5)cc4)cc3F)C(=O)O)cc1)c(=O)n2C [Example 77, N-(2,6-Difluoro-4-{[(4-pyrimidin-2-yl-phenyl)sulfonyl]amino}benzoyl)-4-(3,7-dimethyl-2,6-dioxo-2,3,6,7-tetrahydro-1H-purin-1-yl)-L-phenylalanine]

Further lines, the compound ahead of its results:

Structure (SMILES) | IC50 (α4β1 integrin) [nM] | Selectivity (α4β7 integrin [1]) | IC50 (α4β7 integrin [1]) [nM] | IC50 (α4β7 integrin [2]) [nM]
COc1ccc2c(c1)c(=O)n(-c1ccc(C[C@H](NC(=O)c3c(F)cc(NS(=O)(=O)c4ccc(C(=O)NC5CC5)cc4)cc3F)C(=O)O)cc1)c(=O)n2C [Example 78, N-{4-[({4-[(Cyclopropylamino)carbonyl]phenyl}sulfonyl)amino]-2,6-difluorobenzoyl}-4-(6-methoxy-1-methyl-2,4-dioxo-1,4-dihydroquinazolin-3(2H)-yl)-L-phenylalanine] | 370 | 470 | 0.79 | 19
Cn1c(=O)n(-c2ccc(C[C@H](NC(=O)c3ccc(NS(=O)(=O)c4ccncc4)cc3F)C(=O)O)cc2)c(=O)c2ccncc21 [Example 39, N-{2-Fluoro-4-[(pyridin-4-yl-sulfonyl)amino]benzoyl}-4-(1-methyl-2,4-dioxo-1,4-dihydropyrido[3,4-d]pyrimidin-3(2H)-yl)-L-phenylalanine] | 140 | 170 | 0.83 | 27
Cn1c(=O)n(-c2ccc(C[C@H](NC(=O)c3c(F)cc(NS(=O)(=O)c4ccc(-c5ncccn5)cc4)cc3F)C(=O)O)cc2)c(=O)c2ccncc21 [Example 41, N-(2,6-Difluoro-4-{[(4-pyrimidin-2-yl-phenyl)sulfonyl]amino}benzoyl)-4-(1-methyl-2,4-dioxo-1,4-dihydropyrido[3,4-d]pyrimidin-3(2H)-yl)-L-phenylalanine] | 130 | 500 | 0.26 | 6.4
Cn1c(=O)n(-c2ccc(C[C@H](NC(=O)c3c(F)cc(NS(=O)(=O)c4ccc(C5=CCNCC5)cc4)cc3F)C(=O)O)cc2)c(=O)c2ccncc21 [Example 69, N-[2,6-Difluoro-4-({[4-(1,2,3,6-tetrahydropyridin-4-yl)phenyl]sulfonyl}amino)benzoyl]-4-(1-methyl-2,4-dioxo-1,4-dihydropyrido[3,4-d]pyrimidin-3(2H)-yl)-L-phenylalanine] | 31 | 150 | 0.21 | 1.3
